Columns and labels:
[1] = system: house dust mite proteins (two major HDM allergens group 1 and 2); assay: SDS-PAGE denaturing/neutralizing activity against house dust mite proteins; format: biochemical; parameters: key: +++: comparable to or higher than the activity of the positive control tannic acid; ++: neutralizing activity somewhat lower than that of the positive control; conditions: compounds; incubated with mite proteins 1 hr at 25 C; relative to tannic acid
Text: Adult mites (both sexes, 6-8 days old) were extracted, as described previously [Nakada, S., K. Ito, C. Urata, Y. Sakamoto, M. Hasegawa, T. Nakagawa & T. Miyamoto. 1985. Allergenecity and immunogenicity of house-dust mite (Dermatophagoides farinae) antigens treated with glutaraldehyde. Ann. Allergy 54: 437441; Tovey, E. R. & B. A. Baldo. 1987. Comparison by electroblotting of IgE-binding components in ectracts of house dust mite bodies and spent mite culture. J. Allergy Clin. Immunol. 79: 93102.]. In brief, whole bodies (80 mg fresh weight/4 mL buffer) were homogenized on ice in 0.01 M phosphate-buffered saline (PBS) (pH 7.4) for 15 min. The homogenate was then stirred at 0° C. for 1 hr, centrifuged for 30 min at 14000 g, and concentrated by ultrafiltration to 1 mg/mL of protein.
The protein content was determined using a Bradford protein assay kit (Pierce, Rockford, Ill.). Bovine serum albumin (Pierce, Rockford, Ill.) was used as the standard. Precision Plus Protein Standards was supplied by Bio-Rad (Hercules, Calif.).
SDS-PAGE was performed according to the modified method of Laemmli [Laemmli, U.K. 1970. Cleavage of structural proteins during the assembly of the head of bacteriophage T4. Nature 227: 680685]. Based on the preliminary test results, mixtures of mite proteins ([…]) and each test material ([…]) in 4.5 μL of dimethyl sulfoxide (DMSO) were incubated for 1 hr at 25±1° C. Negative controls consisted of 4.5 μL of DMSO. Tannic acid or 3% tannic acid solution served as a positive control and was similarly formulated. Samples were mixed with an equal volume of SDS sample buffer (4% SDS, 4% mercaptoethanol, and 100 mM Tris-HCl, pH 8.0), boiled for 10 min, and resolved by electrophoresis on 12% (w/v) polyacrylamide gels by using a Mini-Protean 3 electrophoresis cell (Bio-Rad, Hercules, Calif.). After electrophoresis at 120 V for 80 min, the gels were stained with 0.1% Coomassie brilliant blue R-250 for quantification. The intensity of denaturing activity of each test material toward the two major HDM allergens group 1 and 2 was determined using a Gel Doc XR image analyzer with Quantity One Software (Bio-Rad, Hercules, Calif.) according to the manufacturer's instructions.
In FIG. 1, lane M represents a protein marker; land Ext represents a negative control loaded only with untreated house dust mite protein; lanes 5 and 6 indicate moderate activity; lanes 1, 2, 3 and 4 indicate strong activity; and lane TA represents a positive control treated with tannic acid.
Plant essential oils and compounds, confirmed to have neutralizing activity against house dust mites in the above experiments, are summarized in Tables 7 and 8 below, respectively.

[2] = system: Dermatophagoides pteronyssinus house dust mite proteins; assay: Dot-blot immunoassay for human-specific IgE reactivity (inhibition of allergenicity); format: binding; conditions: 500 μg each, allergic patient's serum IgE
Procedure: (§1) In addition, a dot-blot immunoassay for human-specific IgE reactivity was performed, as described previously [Tsai, L. C., Y. C. Sun, P. L. Chao, M. W. Hung, I. C. Kuo, et al. 2000. Protein sequence analysis and mapping of IgE and IgG epitopes of an allergenic 98 kDa Dermatophagoides farinae paramyosin, Der f 11. Allergy 55: 141147]. House dust mite proteins (10 μg) were applied to a PVDF membrane using a Hybri-Dot Manifold (Life Technologies, Gaithersburg, Md.) according to the manufacturer's instructions. After blocking with 0.1% PBS-T containing 5% skim milk, the membrane was incubated with 1:500 diluted allergic patient's antiserum at 4° C. overnight. After washing with 0.1% PBS-T three times, the membrane was incubated with 1:20000 diluted goat anti-human IgG (H+L)-HRP and IgE-HRP conjugate (Zymed Laboratories, Sanfrancisco, Calif.) for 1 hr at 25±1° C. The essential oils and compounds (500 μg each) were tested with the patient's serum which was diluted 1:250, and then incubated 1:5000 diluted IgE-HRP conjugate antibodies. After additional washing, as stated previously, the blot was incubated with ECL chemiluminescence reagent for 1 min and exposed to X-ray films for 5-20 min at room temperature. The intensity of the IgE-reacting dot was determined using a Bio-Rad Gel Doc XR image analyzer, as stated previously. Tannic acid served as a standard reference and was similarly formulated.
(§2) The reference numerals used in FIG. 2 indicate the following: C: untreated control; T: tannic acid; 1: spearmint essential oil; 2: Summer savory essential oil; 3: Oregano essential oil; 4: Carrot seed essential oil; 5: Catnip essential oil; 6: Mandarin essential oil; 7: Lime essential oil; and 8: Celery essential oil.
(§3) The inhibitory activities of the above-described plant essential oils and compounds against the allergenicity of two species of house dust mite proteins are shown in Tables 9 and 10 below, respectively. […]

[3] = system: Dermatophagoides farina house dust mite proteins; assay: as above; format: binding; parameters: unit not given here; conditions: 500 μg each, allergic patient's serum IgE
Procedure: as §1, §2, §3

[4] = system: adult American house dust mites (Dermatophagoides farina); assay: Spray bioassay of spray formulations (acaricidal activity); format: in vivo; conditions: sprayed on cotton fabric, 24 h post-treatment
Procedure: The acaricidal effect of each of carrot seed essential formulations and spearmint essential oil formulations, dissolved in ethanolpolyoxyethylene+polyoxypropylene (9:1) styrenated phenyl ether, was evaluated using a spray bioassay.
In brief, a spray bioassay was used to evaluate the efficacy of four experimental spray formulations against adult American house dust mites (Dermatophagoides farina) [Lee, J. H., J. R. Kim, Y. R. Koh & Y. J. Ahn. 2013. Contact and fumigant toxicity of Pinus densiflora needle hydrodistillate constituents and related compounds and efficacy of spray formulations containing the oil to Dermatophagoides farinae. Pest Manag. Sci. 69: 696702]. Each test solution was sprayed two times successively at 10 cm upwards onto the 5 cm diameter black cotton-fabric circle. After drying for 5 min, each fabric circle was placed onto the bottom section of a disposable Petri dish (5 cm diameter×1 cm height). Groups of 40-50 adult mites (both sexes, 7-10 days old) were placed separately onto the treated fabric circles, and each dish was sealed with the original tight-fitting lid. 2.5 g/L of the commercial acaricide d-phenothrin or permethnrin (cis:trans, 25:75) spray served as a positive control. […] Mortalities were determined 24 h post-treatment under a dissecting microscope (×20). […]

[5] = system: group 1 allergens (Der p I and Der f I); conditions: 3% tannic acid solution (wt/vol); cited from earlier work
[6] = system: group 2 allergens (Der p II and Der f II); conditions: 3% tannic acid solution (wt/vol), compared with group 1; cited from earlier work

SMILES | Neutralizing activity [1] | Inhibition of allergenicity, Dermatophagoides pteronyssinus ([2]; compounds) | Inhibition of allergenicity, Dermatophagoides farina ([3]; compounds) | other results
C=CCN=C=S [Allyl isothiocyanate] | +++ | 73.0 | 82.1 | 
CC=Cc1ccc(OC)cc1 [Anethole] | ++ | 52.1 | 62.3 | 
C/C=C\c1cc(OC)c(OC)cc1OC [Beta-asarone] | ++ | 68.5 | 64.9 | 
CC12CCC(CC1=O)C2(C)C (stereo not drawn) [Camphor] | ++ | 77.9 | 78.2 | 
CC(C)=CCCC(C)CCO (stereo not drawn) [Citronellol] | ++ | 49.2 | 61.2 | 
CC(C)c1ccccc1 [Cumene] | ++ | 47.8 | 60.9 | 
CC(C)c1ccc(C=O)cc1 [Cuminaldehyde] | +++ | 76.1 | 80.4 | 
CC1=CCC2C(C1)C2(C)C (stereo not drawn) [Delta-3-carene] | +++ | 78.1 | 77.9 | 
CC(C)=CCC/C(C)=C/C=O [Geranial] | +++ | 68.1 | 72.6 | 
C=C(C)[C@@H]1CC[C@@H](C)C[C@H]1O [Isopulegol] | ++ | 57.4 | 76.5 | 
C=C(C)[C@H](CO)CC=C(C)C [Lavandulol] | ++ | 62.7 | 74.4 | 
C=CCc1cc(OC)c2c(c1)OCO2 [Myristicin] | +++ | 67.0 | 76.3 | 
CC(C)=CCC/C(C)=C\C=O [Neral] | ++ | 56.5 | 77.2 | 
CC(C)=CCC/C(C)=C\CO [Nerol] | ++ | 42.3 | 67.9 | 
C=CC(C)(O)CCC=C(C)CCC=C(C)C (stereo not drawn) [Nerolidol] | ++ | 67.7 | 42.3 | 
C=C(C)[C@@H]1CC=C(CO)CC1 [Perilla alcohol] | ++ | 56.5 | 68.7 | 
C=C(C)C1CC=C(C=O)CC1 (stereo not drawn) [Perillaldehyde] | +++ | 76.4 | 79.1 | 
CC1(C)C(C=C(Cl)Cl)C1C(=O)OCc1cccc(Oc2ccccc2)c1 (stereo not drawn) [Permethrin] |  |  |  | mortality at 2500 µg/mL ([4]; Dermatophagoides, spearmint essential oil sprays, permethrin spray 2.5 g/L as positive control, read-out: Mortality (%, standard error)): 17.3 ± 3.3%
O=C(OC[C@H]1O[C@@H](OC(=O)c2cc(O)c(O)c(OC(=O)c3cc(O)c(O)c(O)c3)c2)[C@H](OC(=O)c2cc(O)c(O)c(OC(=O)c3cc(O)c(O)c(O)c3)c2)[C@@H](OC(=O)c2cc(O)c(O)c(OC(=O)c3cc(O)c(O)c(O)c3)c2)[C@@H]1OC(=O)c1cc(O)c(O)c(OC(=O)c2cc(O)c(O)c(O)c2)c1)c1cc(O)c(O)c(OC(=O)c2cc(O)c(O)c(O)c2)c1 [Tannic acid, reference compound] |  |  |  | Denaturation of group 1 allergens [5]: denatures; Inhibition of allergenicity, Dermatophagoides pteronyssinus ([2]; essential oils): 81.1; Inhibition of allergenicity, Dermatophagoides farina ([3]; essential oils): 87.2; Denaturation of group 2 allergens [6]: somewhat less effective
Cc1ccc(C(C)C)c(O)c1 [Thymol] | +++ | 67.9 | 79.4 | 
CC(C)=CC1C(C(=O)OCc2cccc(Oc3ccccc3)c2)C1(C)C (stereo not drawn) [d-Phenothrin, d-phenothrin] |  |  |  | Mortality (%, standard error) ([4]; carrot seed essential oil sprays, d-phenothrin spray 2.5 g/L as positive control): 8.3 ± 1.7 d %

Source: patent US20180249717A1, “HOUSE DUST MITE ALLERGY PROTEIN REMOVER, AND COMPOSITION THEREOF” (AYJ BIO LAB INC., priority 2015, published 2018)
